Source: article PMC4482662, “Engineered Trehalose Permeable to Mammalian Cells” (PLoS ONE, 2015)

Experiments:
[1] = tested on: rat hepatocytes; assay: Diffusion-reaction model fitted to the uptake data (membrane permeability and esterase kinetics); format: in vitro ADME
Excerpt: (§1) We assume a lumped passive diffusion model for (n)-O-Ac-Tre across the cell membrane, the rate of change in the intracellular concentration of variants of (n)-O-Ac-Tre, C n, may be expressed using Fick’s first law: d[Cn]/dt=−PnA/V([Cn*]−[Cn]), (1) where P n is the membrane permeability of (n)-O-Ac-Tre. Parameters A and V are cell surface area available for transport and cell volume, respectively. Cn* is the extracellular concentration of (n)-O-Ac-Tre, which is equal to zero for all n<6. For the intracellular de-acetylation of (n)-O-Ac-Tre to (n-1)-O-Ac-Tre by esterase activity, we assume enzymatic reaction kinetics as the following: (n)-O-Ac-Tre+E→knf←knr[(n)-O-Ac-Tre+E]→kncat(n-1)-O-Ac-Tre+E where knf,knr and kncat are the kinetic reaction constants for (n)-O-Ac-Tre variants ranging from 6 to 0. We may assume that the process of de-acetylation of 6-O-Ac-Tre is a series of parallel first order enzymatic reactions competing for enzyme molecules (Fig 2).
(§2) Based on the proposed reaction model, the rate of change in the concentration of (n)-O-Ac-Tre ([C n]) and the intermediate ([C n E]) can be expressed as: d[Cn]/dt=−knf[Cn][En]+knr[CnE]+kn+1cat[Cn+1E]−PnA/V([Cn]−[Cn*]) (2) d[CnE]/dt=knf[Cn][En]−knr[CnE]−kncat[CnE] (3)
(§3) In the above set of equations, [E n] is the fraction of the free enzyme that would interact with [C n]. Assuming quasi-steady-state condition, the left-hand-side of Eq (3) is zero. […] [CnE]=knf[Cn][En]/(knr+kncat) (4)
(§4) We may assume that the probablity of the free enzyme interaction with variants of 6-O-Ac-Tre is directly proportional to respective mole fractions, x n: [En]=[E][Cn]/∑n[Cn]=[E]xn (5) where [E] is the concentration of the free enzyme, which can also be expressed as [E] = [E 0]−∑[C n E]. By replacing Eq (5) in Eq (4), summation over n, and rearranging, we get: [E]=[E0]/1+∑([Cn][xn]/Knm) (6) where Knm=knr+kncat/knf is equivalent of the Michaelis-Menten constant for the enzymatic break-down of (n)-O-Ac-Tre variant. After substituting Eq (6) and Eq (4) in Eq (2) and rearranging, we can propose the rate of change in the concentration of (n)-O-Ac-Tre as the following: d[Cn]/dt=−Vnmax[Cn]xn/Knm(1+∑([Cn][xn]/Knm))+Vn+1max[Cn+1]xn+1/Kn+1m(1+∑([Cn][xn]/Knm))+PnA/V([Cn*]−[Cn]) (7) where Vnmax=kncat[E0] . For trehalose and 6-O-Ac-Tre, the first and second terms on the rights hand side of […] are omitted, respectively. Eq (7) is the general form of the Michaelis-Menten formulation of a multi-step enzymatic reaction for this specific case.
(§5) The permeability coefficient P n, and the coefficients Vnmax and K n in the above list of equations are unknown since no data is available in the literature on these novel molecules to be used in the model. Therefore, the values of these parameters were obtained by fitting the model to the data using a custom-written code in MATLAB (The MathWorks, Natick, MA, USA).
(§6) The proposed diffusion-reaction model in the Methods section allows calculating the permeability coefficients for 6-O-Ac-Tre by fitting the model to the experimental results for 6-O-Ac-Tre. First, we made a few simplifying assumptions. […] We also assumed that the enzymatic kinetics of the de-acetylation process were similar for all the steps of hydrolysis of (n)-O-Ac-Tre to (n-1)-O-Ac-Tre. Therefore, Knm=K^m and Vnmax=V^max for n≤6.
(§7) The model was fit to 3 separate data sets obtained from incubation of cells with 5, 15 and 30 mM 6-O-Ac-Tre, each obtained consisting out of total trehalose and total (n)-O-Ac-Tre variants concentration data (Fig 4, also see S1 Fig). The model was fit to the data up to 9 h incubation. The results are plotted in Fig 4. Using only 3 fitting parameters, the model fit all the 6 data sets very closely with nonlinear regression coefficient R^2 values >0.92. By increasing the incubation concentration from 5 to 30 mM, the value of permeability increased from 2.2×10^−9 to 8.0×10^−9 m s^-1 resulting in an average of 5.0±3.4×10^−9 m s^-1.

[2] = as above; format: in vitro ADME, rat; conditions: female, Lewis, rat, not told, pH 7.1, read-out: P, membrane permeability
Excerpt: as §1, §2, §3, §4, §5, §6, §7

[3] = tested on: rat hepatocytes; assay: Overall morphology of hepatocytes after loading; format: cell-based; conditions: post-loading incubation after 15 and 30 mM for 6 h
Description: We next examined the long-term functional activity of hepatocytes after incubation with 6-O-Ac-Tre. The cells were incubated for 14 days following the incubation with 15 and 30 mM 6-O-Ac-Tre for 6 h (Fig 5). During the post-loading incubation, the cells were examined for overall morphology, viability and the albumin secretion. Mitochondrial membrane potential (ΔΨ) was also examined.

[4] = tested on: rat hepatocytes; assay: Mitochondrial membrane potential (JC-1, Mito-Tracker Red) after loading; format: cell-based; conditions: after 6 h incubation
Description: To determine mitochondrial function after incubation with acetylated trehalose, we used JC-1 for membrane potential and Mito-Tracker Red CMRox for imaging following the manufacturers’ protocols. The hepatocytes were seeded in fibronectin-coated plates and were allowed to attach and spread for 24–48 h. Then, the cells were incubated with 30 mM 6-O-Ac-Tre and 25 mM HEPES for 6 h, after which the wells were washed with excess medium and the cells incubated for 24 h before the assay. Immediately upon the start of incubation with staining agents, the plates were placed in the fluorescent plate reader and the fluorescence was read for 30 min at 579/599 nm excitation/emission wavelengths for Mito-Tracker and at 485 nm excitation and 530/590 nm emission wavelengths for the green and red channels respectively of JC-1. For imaging mitochondria, the hepatocytes were cultured on collagen-coated glass cover slips for 48 h, and were stained with Mito-Tracker Red 24 h after the incubation with 6-O-Ac-Tre for 6 h. The control group was prepared without incubation with 6-O-Ac-Tre. The cover slips were then washed with excess PBS and imaged using a Zeiss microscope with fluorescence capability.

[5] = tested on: rat hepatocytes; assay: MTT cell viability assay after loading; format: cell-based; conditions: 48 h after loading with 30 mM
Description: To evaluate cell viability after incubation with acetylated trehalose compared to control group, […] 0.5 mg/ml. The cells were incubated with the MTT reagent for 2 hrs. At the end of incubation, the MTT reagent was removed and the cells were incubated with DMSO for 10 min to dissolve all crystallized formazan. Then, the concentration of formazan was assayed by reading the absorption values of the DMSO solution in a spectrophotometric plate reader at 560 nm.

Q: For `CC(=O)OC1C(CO)OC(OC2OC(CO)C(OC(C)=O)C(OC(C)=O)C2OC(C)=O)C(OC(C)=O)C1OC(C)=O` (centres unmarked) [6-O-Ac-Tre, trehalose hexaacetate], which “K^m of intracellular esterase deacetylation” value ([1]; Average±S.D. over 5, 15, 30 mM) is on record?
A: Its value is 0.097 ± 0.006 mM.

Q: What about the “V^max of intracellular esterase deacetylation” value (“V^max” below) ([1]; Average±S.D. over 5, 15, 30 mM) of the same molecule?
A: The value was 0.0167 ± 0.01 mM/s.

Q: What about the “K^m of intracellular esterase deacetylation” value ([1]; C* 5 mM) of the same molecule?
A: The value was 0.09 mM.

Q: And the “V^max” value ([1]; C* 5 mM)?
A: The value was 0.007 mM/s.

Q: And the “K^m of intracellular esterase deacetylation” value ([1]; C* 15 mM)?
A: Its value is 0.1 mM.

Q: What about the “V^max” value ([1]; C* 15 mM) of the same molecule?
A: The value was 0.016 mM/s.

Q: What about the “K^m of intracellular esterase deacetylation” value ([1]; C* 30 mM) of the same molecule?
A: The value was 0.1 mM.

Q: What about the “V^max” value ([1]; C* 30 mM) of the same molecule?
A: Its value is 0.027 mM/s.

Q: And the K m ([1]; constant from 5 to 30 mM incubation)?
A: The K m was ~ 0.1 mM.

Q: And the “average conversion rate by esterases” value ([1]; hydrolysis of acetylated trehalose)?
A: The value was 60 ± 36 mM/h.

Q: And the Papp at 9 h ([2]; Average±S.D. over 5, 15, 30 mM)?
A: Its Papp at 9 h is 0.5 ×10⁻⁶ cm/s.

Q: What about the Papp at 9 h, 5 mM ([2]; C* 5 mM, fit up to 9 h) of the same molecule?
A: Its Papp at 9 h, 5 mM is 0.22 ×10⁻⁶ cm/s.

Q: What about the Papp at 9 h, 15 mM ([2]; C* 15 mM, fit up to 9 h) of the same molecule?
A: The Papp at 9 h, 15 mM was 0.39 ×10⁻⁶ cm/s.

Q: What about the Papp at 9 h, 30 mM ([2]; C* 30 mM, fit up to 9 h) of the same molecule?
A: The Papp at 9 h, 30 mM was 0.8 ×10⁻⁶ cm/s.

Q: What about the “overall morphology and lipid droplet formation versus control” value [3] of the same molecule?
A: The value was “minimal changes”.

Q: And the “mitochondrial ΔΨ versus control (Mito-Tracker Red, JC-1 ratio)” value [4]?
A: Its value is “no significant difference”.

Q: What about the “MTT viability versus control” value [5] of the same molecule?
A: Its value is “no significant difference”.
